# According to article PMC5666424, “Marine-Derived 2-Aminoimidazolone Alkaloids. Leucettamine B-Related Polyandrocarpamines Inhibit Mammalian and Protozoan DYRK & CLK Kinases” (Marine Drugs, 2017):
# Like-named read-outs stand apart in the source and are kept apart here.
# Tests used:
# Assay in all cases: Protein kinase assay
# [1] = target: CK1δ/ε; format: biochemical, porcine; conditions: 15 μmol/L ATP
# Experimental: CK1δ/ε (porcine brain, native) and LmCK1 (leishmania major, recombinant, expressed in E. coli as HIS fusion proteins) was assayed as described for CDK1 but in buffer C and using 25 μM CKS peptide ([…]pSAYSITA), a CK1-specific substrate.
# [2] = target: DYRK1A (Homo sapiens, UniProt Q13627); format: biochemical; conditions: 15 μmol/L ATP
# [3] = target: TgCLK (Toxoplasma gondii, UniProt V4ZJD6); format: biochemical
# [4] = target: CLK3 (Mus musculus, UniProt O35492); conditions: IC50 CLK3, 15 μmol/L ATP
# CLK3, sequence (O35492 whole entry): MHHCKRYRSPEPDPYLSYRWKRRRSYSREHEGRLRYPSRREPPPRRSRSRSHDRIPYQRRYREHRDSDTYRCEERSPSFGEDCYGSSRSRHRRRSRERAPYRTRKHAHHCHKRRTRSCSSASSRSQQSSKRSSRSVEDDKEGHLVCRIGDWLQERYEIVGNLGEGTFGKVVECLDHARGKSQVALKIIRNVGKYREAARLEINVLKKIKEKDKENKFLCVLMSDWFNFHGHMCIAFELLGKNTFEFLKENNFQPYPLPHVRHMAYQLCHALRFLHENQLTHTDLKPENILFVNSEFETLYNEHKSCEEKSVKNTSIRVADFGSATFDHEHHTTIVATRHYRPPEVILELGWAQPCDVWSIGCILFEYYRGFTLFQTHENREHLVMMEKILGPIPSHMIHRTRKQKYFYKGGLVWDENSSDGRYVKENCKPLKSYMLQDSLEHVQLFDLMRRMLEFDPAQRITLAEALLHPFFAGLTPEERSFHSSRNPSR
# [5] = target: T1, DYRK2 (Homo sapiens, UniProt Q92630); format: biochemical
# T1 sequence (Q92630 1-601): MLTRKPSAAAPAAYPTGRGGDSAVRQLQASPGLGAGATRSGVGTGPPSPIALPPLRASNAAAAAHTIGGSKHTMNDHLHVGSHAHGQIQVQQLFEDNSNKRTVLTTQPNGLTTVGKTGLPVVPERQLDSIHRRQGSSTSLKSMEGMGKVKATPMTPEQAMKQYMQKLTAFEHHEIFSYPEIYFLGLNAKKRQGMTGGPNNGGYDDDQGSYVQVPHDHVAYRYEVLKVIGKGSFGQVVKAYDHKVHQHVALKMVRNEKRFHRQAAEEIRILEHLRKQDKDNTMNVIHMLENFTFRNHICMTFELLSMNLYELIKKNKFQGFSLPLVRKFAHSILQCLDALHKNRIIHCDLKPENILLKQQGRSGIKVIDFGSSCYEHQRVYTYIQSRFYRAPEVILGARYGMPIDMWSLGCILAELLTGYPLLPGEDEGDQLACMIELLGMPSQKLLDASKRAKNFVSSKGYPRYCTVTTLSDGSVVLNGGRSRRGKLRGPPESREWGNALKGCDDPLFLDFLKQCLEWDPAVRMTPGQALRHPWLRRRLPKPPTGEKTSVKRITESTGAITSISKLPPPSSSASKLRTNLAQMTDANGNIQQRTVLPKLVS
# [6] = target: PfCLK1 (Plasmodium falciparum, UniProt Q8IL19); format: biochemical
# Experimental: (§1) The parasitic kinase genes (Supplementary Data, Table S3) were optimized for expression in E. coli, synthesized, and cloned in pGEX-6P-1 (GE Healthcare, Sigma-Aldrich, St. Quentin Fallavier, France) with the type II restriction enzymes BamHI and XhoI for glutathione S-transferase (GST) fusion at the N-terminus (GenScript). Plasmids were transformed into chemically competent E. coli BL21(DE3), which were grown overnight at 37 °C in 2 × YT medium containing 100 μg/mL ampicillin. These cultures were used to inoculate 1 L volumes of 2 × YT medium (containing 100 μg/mL ampicillin) in 5 L flasks. The cultures were allowed to grow at 37 °C before the temperature was decreased to 18 °C. At an optical density at 600 nm (OD600) of about 1.0, protein expression was induced overnight at 18 °C with 0.1 mM isopropyl β-D-1-thiogalactopyranoside (IPTG). The bacteria were harvested by centrifugation and were frozen at −20 °C.
# (§2) Cells were resuspended in a lysis buffer (PBS pH 7.4, 1% NP40, 1 mM DTT, 1 mM EDTA, 1 mM PMSF) in the presence of protease inhibitor cocktail (Roche), and lysozyme was added to 1 mg/mL and incubated 1 h at 4 °C with gentle agitation. Cells were then sonicated on ice before 6 mM MgCl2 and 25 U/mL benzonase (Novagen, Merck Millipore, Fontenay sous Bois, France) were added to degrade nucleic acids and decrease sample viscosity. After centrifugation at 4 °C, the soluble fraction was collected and proteins were bound to Glutathione sepharose 4B beads (GE Healthcare). Beads were washed three times with lysis buffer and once with modified buffer C (25 mM MOPS pH 7.0, 60 mM β-glycerophosphate, 15 mM p-nitrophenylphosphate, 15 mM EGTA, 15 mM MgCl2, 2 mM DTT, 1 mM sodium vanadate). Proteins were eluted with elution buffer (buffer C containing 30 mM reduced glutathione, 15% glycerol, and pH adjusted to 8.5).
# [7] = target: LdDYRK4 (Leishmania donovani, UniProt A0A3Q8IC55); format: biochemical
# LdDYRK4, sequence (A0A3Q8IC55 entry or part of it): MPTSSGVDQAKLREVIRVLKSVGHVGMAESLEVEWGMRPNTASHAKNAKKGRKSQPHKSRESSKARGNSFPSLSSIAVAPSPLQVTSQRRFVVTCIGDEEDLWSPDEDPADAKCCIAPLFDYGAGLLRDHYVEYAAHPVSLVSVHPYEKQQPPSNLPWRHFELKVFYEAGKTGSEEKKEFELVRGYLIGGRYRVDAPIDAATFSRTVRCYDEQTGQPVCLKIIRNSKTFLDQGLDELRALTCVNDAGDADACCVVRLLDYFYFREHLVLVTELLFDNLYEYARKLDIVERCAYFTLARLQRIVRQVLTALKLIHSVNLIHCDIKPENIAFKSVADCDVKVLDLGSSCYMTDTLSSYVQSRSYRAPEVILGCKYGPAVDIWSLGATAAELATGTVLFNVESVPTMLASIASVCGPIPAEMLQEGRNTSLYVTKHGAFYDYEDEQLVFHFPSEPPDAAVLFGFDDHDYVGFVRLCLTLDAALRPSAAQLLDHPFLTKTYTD
# Experimental: as §1, §2
# [8] = target: T2, PfGSK-3 (Plasmodium falciparum, UniProt O77344); format: biochemical
# T2 sequence (O77344 1-440): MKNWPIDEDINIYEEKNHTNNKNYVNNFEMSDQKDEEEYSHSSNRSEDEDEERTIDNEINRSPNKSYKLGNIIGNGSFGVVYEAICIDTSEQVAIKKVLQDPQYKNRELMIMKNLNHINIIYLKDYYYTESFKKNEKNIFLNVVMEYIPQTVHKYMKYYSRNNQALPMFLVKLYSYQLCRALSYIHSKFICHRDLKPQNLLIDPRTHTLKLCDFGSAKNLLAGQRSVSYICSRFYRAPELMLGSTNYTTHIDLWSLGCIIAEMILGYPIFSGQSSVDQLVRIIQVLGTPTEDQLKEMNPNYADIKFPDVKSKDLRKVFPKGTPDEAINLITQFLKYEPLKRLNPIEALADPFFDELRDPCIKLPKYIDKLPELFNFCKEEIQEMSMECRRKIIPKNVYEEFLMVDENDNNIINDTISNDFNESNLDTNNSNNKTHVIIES
# Experimental: as §1, §2
# [9] = target: TbCLK1 (Trypanosoma brucei brucei, UniProt Q382U0); format: biochemical
# TbCLK1, sequence (Q382U0 entry or part of it): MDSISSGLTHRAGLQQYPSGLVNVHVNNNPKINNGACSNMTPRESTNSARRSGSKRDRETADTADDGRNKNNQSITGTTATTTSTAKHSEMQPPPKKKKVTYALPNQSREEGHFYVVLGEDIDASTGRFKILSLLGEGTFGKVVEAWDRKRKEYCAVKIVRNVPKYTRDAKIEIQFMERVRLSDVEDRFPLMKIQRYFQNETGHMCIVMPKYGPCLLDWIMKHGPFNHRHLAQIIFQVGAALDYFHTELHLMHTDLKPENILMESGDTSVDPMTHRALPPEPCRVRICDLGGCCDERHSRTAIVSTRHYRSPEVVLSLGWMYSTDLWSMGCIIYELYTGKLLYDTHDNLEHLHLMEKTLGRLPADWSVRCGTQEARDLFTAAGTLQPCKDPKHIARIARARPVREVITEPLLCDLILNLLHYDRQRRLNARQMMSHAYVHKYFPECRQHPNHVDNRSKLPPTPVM
# Experimental: as §1, §2
# [10] = target: CpLAMMER (Cryptosporidium parvum, UniProt A3FQG5); format: biochemical
# CpLAMMER, sequence (A3FQG5 entry or part of it): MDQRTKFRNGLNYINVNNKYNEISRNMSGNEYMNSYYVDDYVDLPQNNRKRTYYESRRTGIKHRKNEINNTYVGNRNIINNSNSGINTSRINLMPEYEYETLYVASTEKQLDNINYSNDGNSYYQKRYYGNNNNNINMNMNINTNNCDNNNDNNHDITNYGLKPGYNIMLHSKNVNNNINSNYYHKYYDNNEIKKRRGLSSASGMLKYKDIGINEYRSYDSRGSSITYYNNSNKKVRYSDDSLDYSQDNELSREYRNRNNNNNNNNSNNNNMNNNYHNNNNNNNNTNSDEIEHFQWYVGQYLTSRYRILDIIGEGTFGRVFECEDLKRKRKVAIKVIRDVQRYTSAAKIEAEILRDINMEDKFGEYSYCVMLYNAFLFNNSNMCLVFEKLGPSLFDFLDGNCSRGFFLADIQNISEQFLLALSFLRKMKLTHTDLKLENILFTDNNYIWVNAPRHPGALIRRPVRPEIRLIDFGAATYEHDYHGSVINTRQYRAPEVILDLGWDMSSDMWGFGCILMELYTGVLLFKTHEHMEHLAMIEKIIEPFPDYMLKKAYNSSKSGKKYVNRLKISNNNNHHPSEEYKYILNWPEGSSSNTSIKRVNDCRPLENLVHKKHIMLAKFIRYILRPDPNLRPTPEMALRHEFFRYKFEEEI
# Experimental: as §1, §2
# [11] = target: LdDYRK1B (Leishmania donovani, UniProt E9BC59); format: biochemical; conditions: 15 μmol/L ATP
# Experimental: as §1, §2
# [12] = target: LmCLK (Leishmania major, UniProt Q4QHY4); format: biochemical
# LmCLK, sequence (Q4QHY4 entry or part of it): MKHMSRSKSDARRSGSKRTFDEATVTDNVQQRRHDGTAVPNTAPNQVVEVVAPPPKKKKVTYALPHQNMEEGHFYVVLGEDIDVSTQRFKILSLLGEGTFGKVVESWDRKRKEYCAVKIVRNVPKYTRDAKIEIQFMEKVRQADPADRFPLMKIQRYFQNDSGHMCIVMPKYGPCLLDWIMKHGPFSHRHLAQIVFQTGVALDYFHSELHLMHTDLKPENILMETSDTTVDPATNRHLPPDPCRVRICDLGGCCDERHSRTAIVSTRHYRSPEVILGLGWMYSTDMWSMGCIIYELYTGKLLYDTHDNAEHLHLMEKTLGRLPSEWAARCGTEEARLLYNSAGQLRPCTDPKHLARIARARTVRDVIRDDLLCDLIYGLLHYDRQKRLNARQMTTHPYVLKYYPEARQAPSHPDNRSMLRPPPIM
# Experimental: as §1, §2
# [13] = target: LmDYRK2 (Leishmania major, UniProt Q4Q405); format: biochemical
# LmDYRK2, sequence (Q4Q405 entry or part of it): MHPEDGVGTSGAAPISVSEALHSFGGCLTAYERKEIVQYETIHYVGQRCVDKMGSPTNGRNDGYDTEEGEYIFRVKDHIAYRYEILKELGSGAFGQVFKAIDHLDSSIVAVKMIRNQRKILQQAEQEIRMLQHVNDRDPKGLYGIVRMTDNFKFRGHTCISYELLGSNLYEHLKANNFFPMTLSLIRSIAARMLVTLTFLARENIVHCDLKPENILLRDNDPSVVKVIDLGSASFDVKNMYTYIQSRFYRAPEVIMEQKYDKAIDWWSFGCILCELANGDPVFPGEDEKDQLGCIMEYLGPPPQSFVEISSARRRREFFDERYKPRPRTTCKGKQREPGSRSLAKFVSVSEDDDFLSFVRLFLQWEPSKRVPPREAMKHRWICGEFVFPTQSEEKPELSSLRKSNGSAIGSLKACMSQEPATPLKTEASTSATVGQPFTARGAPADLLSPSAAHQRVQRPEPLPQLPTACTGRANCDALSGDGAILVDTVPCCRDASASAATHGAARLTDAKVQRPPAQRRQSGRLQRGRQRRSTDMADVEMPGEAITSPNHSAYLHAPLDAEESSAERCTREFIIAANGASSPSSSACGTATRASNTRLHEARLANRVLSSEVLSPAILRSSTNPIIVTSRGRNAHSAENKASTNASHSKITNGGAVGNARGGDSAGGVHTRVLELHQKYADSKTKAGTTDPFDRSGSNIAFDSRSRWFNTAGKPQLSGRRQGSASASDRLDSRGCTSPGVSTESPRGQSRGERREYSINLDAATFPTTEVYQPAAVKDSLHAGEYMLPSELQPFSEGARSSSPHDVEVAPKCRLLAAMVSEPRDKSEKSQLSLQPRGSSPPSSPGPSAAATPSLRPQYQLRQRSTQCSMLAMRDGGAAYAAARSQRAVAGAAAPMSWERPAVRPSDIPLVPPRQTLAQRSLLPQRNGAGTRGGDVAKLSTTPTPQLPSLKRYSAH
# Experimental: as §1, §2
# [14] = target: GlCLK (Giardia intestinalis, UniProt A8BBY0); format: biochemical
# GlCLK, sequence (A8BBY0 entry or part of it): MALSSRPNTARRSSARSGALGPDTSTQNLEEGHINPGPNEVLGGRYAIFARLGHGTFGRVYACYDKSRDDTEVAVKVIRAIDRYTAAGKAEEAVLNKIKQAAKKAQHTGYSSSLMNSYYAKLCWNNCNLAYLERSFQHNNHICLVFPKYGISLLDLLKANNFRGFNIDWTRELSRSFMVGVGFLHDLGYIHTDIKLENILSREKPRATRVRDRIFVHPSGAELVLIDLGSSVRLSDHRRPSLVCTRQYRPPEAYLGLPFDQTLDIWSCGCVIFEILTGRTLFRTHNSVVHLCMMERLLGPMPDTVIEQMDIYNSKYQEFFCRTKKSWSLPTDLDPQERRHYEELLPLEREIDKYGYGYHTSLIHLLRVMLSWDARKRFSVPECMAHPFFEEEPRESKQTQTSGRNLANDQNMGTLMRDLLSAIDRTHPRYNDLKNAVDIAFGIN
# Experimental: as §1, §2
# [15] = target: LdDYRK3 (Leishmania donovani, UniProt E9BS59); format: biochemical
# LdDYRK3, sequence (E9BS59 entry or part of it): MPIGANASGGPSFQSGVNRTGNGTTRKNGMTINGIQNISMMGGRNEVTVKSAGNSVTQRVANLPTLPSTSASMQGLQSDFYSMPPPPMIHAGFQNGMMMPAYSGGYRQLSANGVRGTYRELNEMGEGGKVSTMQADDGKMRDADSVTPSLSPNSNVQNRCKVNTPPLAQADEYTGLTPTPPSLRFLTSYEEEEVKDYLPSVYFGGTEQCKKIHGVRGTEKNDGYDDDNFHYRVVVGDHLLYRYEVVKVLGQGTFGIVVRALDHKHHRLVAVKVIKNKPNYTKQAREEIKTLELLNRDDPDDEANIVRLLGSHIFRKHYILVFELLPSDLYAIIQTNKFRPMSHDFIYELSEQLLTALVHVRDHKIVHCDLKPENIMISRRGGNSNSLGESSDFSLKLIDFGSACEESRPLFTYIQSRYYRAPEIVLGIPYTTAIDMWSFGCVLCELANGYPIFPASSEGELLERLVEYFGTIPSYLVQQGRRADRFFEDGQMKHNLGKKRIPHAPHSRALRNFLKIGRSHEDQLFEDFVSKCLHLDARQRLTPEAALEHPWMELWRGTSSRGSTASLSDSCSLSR
# Experimental: as §1, §2
# [16] = target: TcCLK1 (Trypanosoma cruzi, UniProt Q4E3Z1); format: biochemical
# TcCLK1, sequence (Q4E3Z1 entry or part of it): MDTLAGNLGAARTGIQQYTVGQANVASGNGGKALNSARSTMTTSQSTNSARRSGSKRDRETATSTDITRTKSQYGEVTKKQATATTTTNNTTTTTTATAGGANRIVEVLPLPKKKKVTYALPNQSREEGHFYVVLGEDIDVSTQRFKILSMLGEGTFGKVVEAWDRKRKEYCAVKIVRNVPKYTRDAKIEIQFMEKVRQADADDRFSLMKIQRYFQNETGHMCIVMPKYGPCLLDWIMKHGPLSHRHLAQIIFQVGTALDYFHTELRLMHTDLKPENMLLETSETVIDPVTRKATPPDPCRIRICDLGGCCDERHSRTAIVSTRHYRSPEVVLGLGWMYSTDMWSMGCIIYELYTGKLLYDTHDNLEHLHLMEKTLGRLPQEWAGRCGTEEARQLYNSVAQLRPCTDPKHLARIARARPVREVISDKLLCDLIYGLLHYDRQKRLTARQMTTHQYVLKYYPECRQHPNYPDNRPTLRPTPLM
# Experimental: as §1, §2
# [17] = 15 μmol/L ATP; read-out: IC50 TgCLK
# [18] = 15 μmol/L ATP, read-out: IC50 DYRK2
# [19] = 15 μmol/L ATP, read-out: IC50 PfCLK1
# [20] = 15 μmol/L ATP, read-out: IC50 LdDYRK4
# [21] = 15 μmol/L ATP, read-out: IC50 PfGSK-3
# [22] = 15 μmol/L ATP, read-out: IC50 TbCLK1
# [23] = 15 μmol/L ATP, read-out: IC50 CpLAMMER
# [24] = 15 μmol/L ATP, read-out: IC50 LmCLK
# [25] = 15 μmol/L ATP, read-out: IC50 LmDYRK2
# [26] = 15 μmol/L ATP, read-out: IC50 GlCLK
# [27] = 15 μmol/L ATP, read-out: IC50 LdDYRK3
# [28] = 15 μmol/L ATP, read-out: IC50 TcCLK1
SMILES,IC50 [1],IC50 [2],"IC50 [3, 17]",IC50 [4],"IC50 [5, 18]","IC50 [6, 19]","IC50 [7, 20]","IC50 [8, 21]","IC50 [9, 22]","IC50 [10, 23]",IC50 [11],"IC50 [12, 24]","IC50 [13, 25]","IC50 [14, 26]","IC50 [15, 27]","IC50 [16, 28]",other results
CN1C(=N)N(C)/C(=C\c2c[nH]c3ccccc23)C1=O [Aplysinopsine],> 10 µM,> 10000 nM,> 10 µM,> 10 µM,> 10000 nM,> 10000 nM,> 10 µM,> 10 µM,> 10 µM,> 10000 nM,> 10 µM,> 10 µM,> 10 µM,> 10000 nM,> 10 µM,> 10 µM,
CN1C(=N)N=C(Nc2nc(Cc3ccc4c(c3)OCO4)cn2C)C1=O [Clathridimine],> 10 µM,5200 nM,> 10 µM,> 10 µM,6200 nM,> 10000 nM,> 10 µM,> 10 µM,> 10 µM,> 10000 nM,> 10 µM,> 10 µM,> 10 µM,> 10000 nM,7.9 µM,> 10 µM,
CN1C(=O)N=C(Nc2nc(Cc3ccc4c(c3)OCO4)cn2C)C1=O [Clathridine],> 10 µM,7800 nM,> 10 µM,> 10 µM,7100 nM,> 10000 nM,> 10 µM,> 10 µM,> 10 µM,> 10000 nM,> 10 µM,> 10 µM,> 10 µM,> 10000 nM,> 10 µM,> 10 µM,
NC1=N/C(=C\CCNC(=O)c2cc(Br)c(Br)[nH]2)C(=O)N1 [Dispacamide],> 10 µM,> 10000 nM,> 10 µM,> 10 µM,> 10000 nM,> 10000 nM,> 10 µM,> 10 µM,> 10 µM,> 10000 nM,> 10 µM,> 10 µM,> 10 µM,> 10000 nM,> 10 µM,> 10 µM,
"NC1=NC(=O)/C(=C2\CCNC(=O)c3[nH]c(Br)cc32)N1 [Hymenialdisine, reference compound]",0.0037 µM,3.3 nM,0.041 µM,0.0053 µM,3.1 nM,11 nM,> 10 µM,0.0041 µM,0.53 µM,16 nM,0.042 µM,0.4 µM,0.38 µM,12 nM,0.021 µM,0.51 µM,
CN1C(=O)/C(=C/c2ccc3c(c2)OCO3)N=C1N [Leucettamine B],> 10 µM,,,9.7 µM,,,,,,,6.9 µM,,,,,,"IC50 ([3]; read-out: IC50 TgCLK; 15 μmol/L ATP): 4.1 µM; IC50 ([5]; IC50 DYRK2, 15 μmol/L ATP): 490 nM; IC50 [6]: 790 nM; IC50 [7]: > 10 µM; IC50 [8]: > 10 µM; IC50 [9]: > 10 µM; IC50 [10]: 1800 nM; IC50 [12]: > 10 µM; IC50 [13]: 4.2 µM; IC50 [14]: 3100 nM; IC50 [15]: > 10 µM; IC50 [16]: > 10 µM"
COc1cc(/C=C2\N=C(N)NC2=O)ccc1O [Polyandrocarpamine A],3.3 µM,270 nM,> 10 µM,2.6 µM,420 nM,650 nM,> 10 µM,> 10 µM,> 10 µM,170 nM,1.1 µM,> 10 µM,5.9 µM,950 nM,> 10 µM,> 10 µM,
NC1=N/C(=C\c2ccc(O)c(O)c2)C(=O)N1 [Polyandrocarpamine B],> 10 µM,470 nM,> 10 µM,8.6 µM,760 nM,3100 nM,> 10 µM,> 10 µM,> 10 µM,200 nM,> 10 µM,> 10 µM,> 10 µM,2200 nM,> 10 µM,> 10 µM,
NC1=NC(=O)/C(=C2\CCNC(=O)c3[nH]cc(Br)c32)N1 [Spongiacidin B],0.031 µM,780 nM,0.48 µM,0.049 µM,21 nM,85 nM,> 10 µM,0.038 µM,0.71 µM,130 nM,0.5 µM,5.2 µM,9 µM,120 nM,0.3 µM,1.1 µM,
